In US10849982B2, “C3-carbon linked glutarimide degronimers for target protein degradation” (C4 Therapeutics, Inc., priority 2016, dated 2020):
Structures can show the parent of a compound that is named as a salt.

The molecules below were run against CRBN-DDB1 (Homo sapiens (Human), UniProt Q96SW2) (assay: CRBN-DDB1 fluorescence polarization (FP) binding assay). Settings: displacement of Thalidomide-Alexa Fluor or Pomalidomide-fluorescein probe.
Chain of CRBN-DDB1 (Q96SW2 whole entry): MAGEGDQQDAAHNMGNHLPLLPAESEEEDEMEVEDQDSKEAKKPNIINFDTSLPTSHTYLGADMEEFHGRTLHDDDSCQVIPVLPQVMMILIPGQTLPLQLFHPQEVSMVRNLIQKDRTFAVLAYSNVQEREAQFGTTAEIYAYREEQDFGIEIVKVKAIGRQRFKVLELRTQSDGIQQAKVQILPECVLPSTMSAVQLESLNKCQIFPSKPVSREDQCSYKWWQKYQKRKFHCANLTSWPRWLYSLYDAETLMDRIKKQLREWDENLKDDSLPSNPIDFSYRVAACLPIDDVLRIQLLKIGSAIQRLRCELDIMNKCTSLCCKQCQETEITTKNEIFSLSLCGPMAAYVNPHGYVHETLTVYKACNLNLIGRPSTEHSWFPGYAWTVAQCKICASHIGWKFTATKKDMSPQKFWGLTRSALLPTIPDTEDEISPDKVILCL
Chain of CRBN-DDB1 (Q16531 whole entry partner): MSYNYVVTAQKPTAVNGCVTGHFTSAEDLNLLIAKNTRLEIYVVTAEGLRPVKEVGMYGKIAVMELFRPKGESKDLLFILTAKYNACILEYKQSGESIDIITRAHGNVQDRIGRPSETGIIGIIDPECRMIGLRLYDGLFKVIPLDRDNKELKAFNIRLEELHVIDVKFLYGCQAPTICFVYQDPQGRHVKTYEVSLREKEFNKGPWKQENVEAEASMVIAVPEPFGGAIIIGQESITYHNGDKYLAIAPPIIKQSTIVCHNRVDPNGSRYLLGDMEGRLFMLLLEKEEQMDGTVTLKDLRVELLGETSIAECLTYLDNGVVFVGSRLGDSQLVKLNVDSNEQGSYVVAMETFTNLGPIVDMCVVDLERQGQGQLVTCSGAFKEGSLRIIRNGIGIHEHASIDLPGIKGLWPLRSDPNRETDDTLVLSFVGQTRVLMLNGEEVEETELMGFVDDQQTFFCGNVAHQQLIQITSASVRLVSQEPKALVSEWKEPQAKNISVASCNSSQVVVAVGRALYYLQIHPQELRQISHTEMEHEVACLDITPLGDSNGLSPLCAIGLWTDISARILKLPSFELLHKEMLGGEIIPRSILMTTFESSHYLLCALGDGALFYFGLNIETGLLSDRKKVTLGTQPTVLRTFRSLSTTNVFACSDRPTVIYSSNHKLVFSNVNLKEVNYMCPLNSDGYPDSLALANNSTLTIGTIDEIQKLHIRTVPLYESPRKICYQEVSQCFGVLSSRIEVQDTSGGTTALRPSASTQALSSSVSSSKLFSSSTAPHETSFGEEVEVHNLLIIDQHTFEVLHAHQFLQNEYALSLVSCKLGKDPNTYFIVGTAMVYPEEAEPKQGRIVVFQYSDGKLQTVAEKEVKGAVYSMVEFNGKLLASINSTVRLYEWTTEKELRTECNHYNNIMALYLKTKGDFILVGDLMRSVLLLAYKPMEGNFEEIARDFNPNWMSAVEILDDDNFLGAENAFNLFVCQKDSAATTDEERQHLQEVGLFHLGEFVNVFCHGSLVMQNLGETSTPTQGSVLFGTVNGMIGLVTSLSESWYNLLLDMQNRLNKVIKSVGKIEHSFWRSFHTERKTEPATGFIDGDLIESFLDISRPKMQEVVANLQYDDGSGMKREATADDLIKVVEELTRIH
Method: Measuring compound ligand binding to CRBN-DDB1 was carried out using an established sensitive and quantitative in vitro fluorescence polarization (FP) based binding assay. […] Compounds were dispensed from serially diluted DMSO stock into black 384-well compatible fluorescence polarization plates using an Echo acoustic dispenser. Compound binding to CRBN-DDB1 was measured by displacement of either a (−)-Thalidomide-Alexa Fluor® or Pomalidomide-fluorescein conjugated probe dye. […] Matching control wells excluding CRBN-DDB1 were used to correct for background fluorescence. Plates were read on an Envision plate reader with appropriate FP filter sets. The corrected S (perpendicular) and P (parallel) values were used to calculate fluorescence polarization (FP) with the following equation: FP=1000*(S−G*P)/(S+G*P).
Molecule `O=C1NC(=O)C2(c3ccccc3)CC12` (centres unmarked) [Compound 1, 1-phenyl-3-azabicyclo[3.1.0]hexane-2,4-dione] has a Kd greater than 100 µM. `O=C1NC(=O)C2(c3ccccc3)CC1C2` [Compound 2, 1-Phenyl-3-azabicyclo[3.1.1]heptane-2,4-dione] showed a Kd greater than 30 µM. `O=C1NC(=O)C2(c3ccc([N+](=O)[O-])cc3)CC12` (centres unmarked) [Compound 3, 1-(4-Nitrophenyl)-3-azabicyclo[3.1.0]hexane-2,4-dione] showed a Kd greater than 100 µM. Work on `Nc1ccc(C23CC2C(=O)NC3=O)cc1` (centres unmarked) [Compound 4, 1-(4-Aminophenyl)-3-azabicyclo[3.1.0]hexane-2,4-dione] yielded a Kd greater than 30 µM. With `CN(C)CC(=O)Nc1ccc(C23CC2C(=O)NC3=O)cc1` (centres unmarked) [Compound 5, 2-(dimethylamino)-N-(4-(2,4-dioxo-3-azabicyclo[3.1.0]hexan-1-yl)phenyl)acetamide] the Kd was greater than 100 µM. In the case of `CC(=O)Nc1ccc(C23CC2C(=O)NC3=O)cc1` (centres unmarked) [Compound 6, N-(4-(2,4-dioxo-3-azabicyclo[3.1.0]hexan-1-yl)phenyl)acetamide], the Kd is reported as greater than 100 µM. Work on `CS(=O)(=O)Nc1ccc(C23CC2C(=O)NC3=O)cc1` (centres unmarked) [Compound 7, N-(4-(2,4-dioxo-3-azabicyclo[3.1.0]hexan-1-yl)phenyl)methanesulfonamide] yielded a Kd greater than 100 µM. In the case of `CC1(c2ccccc2)CCC(=O)NC1=O` (centres unmarked) [Compound 8, 3-Methyl-3-phenylpiperidine-2,6-dione], the Kd is reported as greater than 30 µM. For `CC1(c2ccc(N)cc2)CCC(=O)NC1=O` (centres unmarked) [Compound 10, 3-(4-Aminophenyl)-3-methylpiperidine-2,6-dione], the Kd was greater than 30 µM. Molecule `CC1(c2ccccc2N)CCC(=O)NC1=O` (centres unmarked) [Compound 11, 3-(2-aminophenyl)-3-methylpiperidine-2,6-dione] has a Kd greater than 30 µM. `Cn1c(CC2CCC(=O)NC2=O)nc2ccccc21` (centres unmarked) [Compound 12] was tested, and the Kd was 50 to 100 µM. `Cn1nc(CC2CCC(=O)NC2=O)c2ccccc21` (centres unmarked) [Compound 13, 3-((1-methyl-1H-indazol-3-yl)methyl)piperidine-2,6-dione] showed a Kd greater than 100 µM. Molecule `O=C1CCC(C(=O)Nc2ccccc2)C(=O)N1` (centres unmarked) [Compound 14] has a Kd of 50 to 100 µM. For `COc1ccccc1NC(=O)C1CCC(=O)NC1=O` (centres unmarked) [Compound 15], the Kd was 10 to 50 µM. `O=C1CCC(C(=O)Nc2cccnc2)C(=O)N1` (centres unmarked) [Compound 16] gave a Kd greater than 100 µM. Molecule `O=C1CCC(C(=O)Nc2ccccn2)C(=O)N1` (centres unmarked) [Compound 17] has a Kd greater than 100 µM. Molecule `O=C1CCC(C(=O)Nc2ccccc2F)C(=O)N1` (centres unmarked) [Compound 18] has a Kd greater than 100 µM. `COc1ccccc1N(C)C(=O)C1CCC(=O)NC1=O` (centres unmarked) [Compound 19] was tested, and the Kd was greater than 100 µM. `CN(C(=O)C1CCC(=O)NC1=O)c1ccccn1` (centres unmarked) [Compound 20] was tested, and the Kd was greater than 100 µM. Molecule `CN(C(=O)C1CCC(=O)NC1=O)c1ccccc1F` (centres unmarked) [Compound 21] has a Kd of 50 to 100 µM. `CN(C(=O)C1CCC(=O)NC1=O)c1ccccc1` (centres unmarked) [Compound 22] showed a Kd greater than 100 µM. `O=C1CCC(CC(=O)Nc2ccccc2F)C(=O)N1` (centres unmarked) [Compound 23, 2-(2,6-Dioxo-piperidin-3-yl)-N-(2-fluoro-phenyl)-acetamide] gave a Kd of 50 to 100 µM. Work on `O=C1CCC(Cc2cn(-c3ccccc3)nn2)C(=O)N1` (centres unmarked) [Compound 24, 3-(1-Phenyl-1H-[1,2,3]triazol-4-ylmethyl)-piperidine-2,6-dione] yielded a Kd of 10 to 50 µM. `Cn1cc(CC2CCC(=O)NC2=O)nn1` (centres unmarked) [Compound 25, 3-(1-Methyl-1H-[1,2,3]triazol-4-ylmethyl)-piperidine-2,6-dione] was tested, and the Kd was 50 to 100 µM. With `Cn1cc(C2CCC(=O)NC2=O)nn1` (centres unmarked) [Compound 26, 3-(1-Methyl-1H-[1,2,3]triazol-4-yl)-piperidine-2,6-dione] the Kd was 50 to 100 µM. For `O=C1CCC(c2cn(-c3ccccc3)nn2)C(=O)N1` (centres unmarked) [Compound 27, 3-(1-Phenyl-1H-[1,2,3]triazol-4-yl)-piperidine-2,6-dione], the Kd was 10 to 50 µM. Work on `O=C1CCC(c2ncc3ccccn23)C(=O)N1` (centres unmarked) [Compound 28, 3-Imidazo[1,5-a]pyridin-3-yl-piperidine-2,6-dione] yielded a Kd of less than 10 µM. With `Cn1cc(C2CCC(=O)NC2=O)c2ccccc21` (centres unmarked) [Compound 29, 3-(1-Methyl-1H-indol-3-yl)-piperidine-2,6-dione] the Kd was less than 10 µM. Work on `Cn1nc(C2CCC(=O)NC2=O)cc1-c1ccccc1` (centres unmarked) [Compound 30, 3-(1-methyl-5-phenyl-1H-pyrazol-3-yl)-piperidine-2,6-dione] yielded a Kd of less than 10 µM. With `Cn1nc(-c2ccccc2)cc1C1CCC(=O)NC1=O` (centres unmarked) [Compound 31, 3-(1-methyl-3-phenyl-1H-pyrazol-5-yl)piperidine-2,6-dione] the Kd was 50 to 100 µM. Molecule `Cc1ccccc1C1CCC(=O)NC1=O` (centres unmarked) [Compound 32, 3-(o-tolyl)piperidine-2,6-dione] has a Kd of 10 to 50 µM. `Cn1ccc(C2CCC(=O)NC2=O)n1` (centres unmarked) [Compound 33, 3-(1-methyl-1H-pyrazol-3-yl)piperidine-2,6-dione] showed a Kd of 10 to 50 µM. Molecule `COc1cccc(C2CCC(=O)NC2=O)n1` (centres unmarked) [Compound 34, 3-(6-methoxypyridin-2-yl)piperidine-2,6-dione] has a Kd of 10 to 50 µM. `Cn1ccc2ccc(C3CCC(=O)NC3=O)nc21` (centres unmarked) [Compound 35, 3-(1-Methyl-1H-pyrrolo[2,3-b]pyridin-6-yl)-piperidine-2,6-dione] gave a Kd of 10 to 50 µM. For `Cn1cnc2c(C3CCC(=O)NC3=O)cccc21` (centres unmarked) [Compound 36, 3-(1-methyl-1H-benzo[d]imidazol-4-yl)piperidine-2,6-dione], the Kd was 10 to 50 µM. Molecule `Cn1nc(C2CCC(=O)NC2=O)c2ccccc21` (centres unmarked) [Compound 37, 3-(1-Methyl-1H-indazol-3-yl)-piperidine-2,6-dione] has a Kd of less than 10 µM. With `Cn1nc([C@@H]2CCC(=O)NC2=O)c2ccccc21` [Compound 38] the Kd was less than 10 µM. `Cn1nc([C@H]2CCC(=O)NC2=O)c2ccccc21` [Compound 39] gave a Kd of 10 to 50 µM. `Cn1c(=O)c(C2CCC(=O)NC2=O)cc2ccccc21` (centres unmarked) [Compound 40, 3-(1-Methyl-2-oxo-1,2-dihydro-quinolin-3-yl)-piperidine-2,6-dione] was tested, and the Kd was less than 10 µM. Work on `CN1Cc2ccc(C3CCC(=O)NC3=O)cc2C1=O` (centres unmarked) [Compound 41, 3-(2-Methyl-3-oxo-2,3-dihydro-1H-isoindol-5-yl)-piperidine-2,6-dione] yielded a Kd of 10 to 50 µM. `CC(C)(C)OC(=O)N1Cc2cccc(C3CCC(=O)NC3=O)c2C1` (centres unmarked) [Compound 42, 4-(2,6-dioxo-piperidin-3-yl)-1,3-dihydro-isoindole-2-carboxylic acid tert-butyl ester] showed a Kd of 10 to 50 µM. `CC(C)(C)OC(=O)N1CCN(C(=O)CC2CCC(=O)NC2=O)CC1` (centres unmarked) [Compound 44, 4-[2-(2,6-Dioxo-piperidin-3-yl)-acetyl]-piperazine-1-carboxylic acid tert-butyl ester] gave a Kd of 50 to 100 µM. `O=C1CCC(CC(=O)N2CCNCC2)C(=O)N1` (centres unmarked) [Compound 45, 3-(2-Oxo-2-piperazin-1-yl-ethyl)-piperidine-2,6-dione hydrochloride Salt] gave a Kd of 50 to 100 µM. In the case of `Cc1nc(C2CCC(=O)NC2=O)cn1-c1ccccc1` (centres unmarked) [Compound 46, 3-(2-Methyl-1-phenyl-1H-imidazol-4-yl)-piperidine-2,6-dione], the Kd is reported as 10 to 50 µM. Work on `Cn1nc(C2(C)CCC(=O)NC2=O)c2ccccc21` (centres unmarked) [Compound 47, 3-Methyl-3-(1-methyl-1H-indazol-3-yl)-piperidine-2,6-dione] yielded a Kd of 10 to 50 µM. With `Cc1nc2cc(C3CCC(=O)NC3=O)ccc2s1` (centres unmarked) [Compound 48, 3-(2-Methyl-benzothiazol-5-yl)-piperidine-2,6-dione] the Kd was less than 10 µM. `Cn1c(=O)oc2ccc(C3CCC(=O)NC3=O)cc21` (centres unmarked) [Compound 49, 3-(3-Methyl-2-oxo-2,3-dihydro-benzooxazol-5-yl)-piperidine-2,6-dione] showed a Kd of 10 to 50 µM. `O=C1CCC(Cc2ccccc2)C(=O)N1` (centres unmarked) [Compound 50, 3-benzylpiperidine-2,6-dione] gave a Kd of 10 to 50 µM. `Cn1nc(C2CCC(=O)NC2=O)c2ccc(N)cc21` (centres unmarked) [Compound 51, 3-(6-amino-1-methyl-indazol-3-yl)piperidine-2,6-dione] was tested, and the Kd was 50 to 100 µM. `Cn1nc(C2CCC(=O)NC2=O)c2ccc(NC3CCN(C(=O)OC(C)(C)C)CC3)cc21` (centres unmarked) [Compound 52, tert-Butyl 4-((3-(2,6-dioxopiperidin-3-yl)-1-methyl-1H-indazol-6-yl)amino)piperidine-1-carboxylate] showed a Kd of less than 10 µM. For `Cn1nc(C2CCC(=O)NC2=O)c2ccc(NC3CCNCC3)cc21` (centres unmarked) [Compound 53, 3-(1-Methyl-6-(piperidin-4-ylamino)-1H-indazol-3-yl)piperidine-2,6-dione hydrochloride], the Kd was less than 10 µM. With `CC(C)(C)OC(=O)N1Cc2ccc(C3CCC(=O)NC3=O)cc2C1` (centres unmarked) [Compound 54, 5-(2,6-Dioxo-piperidin-3-yl)-1,3-dihydro-isoindole-2-carboxylic acid tert-butyl ester] the Kd was 10 to 50 µM. In the case of `O=C1CCC(c2ccc3c(c2)CNC3)C(=O)N1` (centres unmarked) [Compound 55, 3-(Isoindolin-5-yl)piperidine-2,6-dione hydrochloride], the Kd is reported as 50 to 100 µM. `O=C1CCC(c2nccc3ccccc23)C(=O)N1` (centres unmarked) [Compound 58, 3-(Isoquinolin-1-yl)piperidine-2,6-dione] showed a Kd of 10 to 50 µM. `Cn1cccc(C2CCC(=O)NC2=O)c1=O` (centres unmarked) [Compound 59, 3-(1-methyl-2-oxo-1,2-dihydropyridin-3-yl)piperidine-2,6-dione] was tested, and the Kd was 50 to 100 µM. In the case of `O=C1CCC(O)(C(=O)OCc2ccccc2)C(=O)N1` (centres unmarked) [Compound 60, benzyl 3-hydroxy-2,6-dioxopiperidine-3-carboxylate], the Kd is reported as 10 to 50 µM. `Cc1nc(C2CCC(=O)NC2=O)n2ccccc12` (centres unmarked) [Compound 61, 3-(1-methylimidazo[1,5-a]pyridin-3-yl)piperidine-2,6-dione] was tested, and the Kd was less than 10 µM. `Cn1c(C2CCC(=O)NC2=O)nc2ccccc21` (centres unmarked) [Compound 62, 3-(1-methyl-1H-benzo[d]imidazol-2-yl)piperidine-2,6-dione] was tested, and the Kd was 50 to 100 µM. `O=C1CCC(c2cn(-c3ccccc3)cn2)C(=O)N1` (centres unmarked) [Compound 64, 3-(1-phenyl-1H-imidazol-4-yl)piperidine-2,6-dione] was tested, and the Kd was 10 to 50 µM.
